The results in this text go back to ChEMBL document CHEMBL3045280, “Designing Tetrahydroimidazo[1,2-a]pyridine derivatives via catalyst-free Aza-Diels-Alder reaction (ADAR) and their insecticidal evaluation” (2010).

Structures are written as SMILES.

One assay relates to Aphis craccivora. As to the kind of experiment: Insecticidal activity against Aphis craccivora (cowpea aphid) infested tender soybean shoots exposed to compound solution assessed as insect mortality measured 24 hr post compound treatment (reference value: 4.1%). The class given is functional.
In the case of `Cc1ccc(C2N3CCN(Cc4ccc(Cl)nc4)C3=C([N+](=O)[O-])C(c3ccco3)C2(C#N)C#N)c(F)c1` (configuration not stated), the LC50 came to 5.52 µM.

In the case of `O=[N+]([O-])/N=C1\NCCN1Cc1ccc(Cl)nc1` [IMIDACLOPRID], the LC50 was 35 µM.

As to `N#CC1(C#N)C(c2ccco2)C([N+](=O)[O-])=C2N(Cc3ccc(Cl)nc3)CCN2C1c1ccc(C(F)(F)F)c(F)c1` (configuration not stated), the LC50 amounted to 87.4 µM.

As for `N#CC1(C#N)C(c2ccco2)C([N+](=O)[O-])=C2N(Cc3ccc(Cl)nc3)CCN2C1c1cc(C(F)(F)F)ccc1F` (configuration not stated), the LC50 stood at 113 µM.

As to `N#CC1(C#N)C(c2ccco2)C([N+](=O)[O-])=C2N(Cc3ccc(Cl)nc3)CCN2C1c1ccc(Cl)cc1C(F)(F)F` (configuration not stated), the LC50 was found to be 87.2 µM.

Another assay relates to Aphis craccivora. The assay is described as follows: Insecticidal activity against Aphis craccivora (cowpea aphid) infested tender soybean shoots exposed to 500 mg/L compound solution assessed as insect mortality measured 24 hr post compound treatment (reference value: 4.1%). Type of assay: functional.
With `N#CC1(C#N)C(c2ccco2)C([N+](=O)[O-])=C2N(Cc3ccc(Cl)nc3)CCN2C1c1cccc(F)c1F` (configuration not stated), the mortality came out at 48.8%.

On to `Cc1ccc(C2N3CCN(Cc4ccc(Cl)nc4)C3=C([N+](=O)[O-])C(c3ccco3)C2(C#N)C#N)c(F)c1` (configuration not stated), for which the mortality turned out to be 100%.

Turning to `Cc1ccc(F)c(C2N3CCN(Cc4ccc(Cl)nc4)C3=C([N+](=O)[O-])C(c3ccco3)C2(C#N)C#N)c1` (configuration not stated), the mortality is 73.9%.

On to `N#Cc1cccc(C2N3CCN(Cc4ccc(Cl)nc4)C3=C([N+](=O)[O-])C(c3ccco3)C2(C#N)C#N)c1` (configuration not stated), for which the mortality is recorded as 0%.

For `N#CC1(C#N)C(c2ccco2)C([N+](=O)[O-])=C2N(Cc3ccc(Cl)nc3)CCN2C1c1ccc(C(F)(F)F)c(F)c1` (configuration not stated), the mortality came to 96.8%.

As for `N#CC1(C#N)C(c2ccco2)C([N+](=O)[O-])=C2N(Cc3ccc(Cl)nc3)CCN2C1c1ccc(F)cc1` (configuration not stated), the mortality was 64.21%.

For `N#CC1(C#N)C(c2ccco2)C([N+](=O)[O-])=C2N(Cc3ccc(Cl)nc3)CCN2C1c1cc(C(F)(F)F)ccc1F` (configuration not stated), the mortality was determined as 100%.

On to `N#CC1(C#N)C(c2ccco2)C([N+](=O)[O-])=C2N(Cc3ccc(Cl)nc3)CCN2C1c1cccc([N+](=O)[O-])c1` (configuration not stated), for which the mortality is recorded as 0%.

Turning to `N#CC1(C#N)C(c2ccco2)C([N+](=O)[O-])=C2N(Cc3ccc(Cl)nc3)CCN2C1c1ccc(Cl)cc1F` (configuration not stated), the mortality is reported as 56.7%.

Consider `CN(C)c1ccc(C2N3CCN(Cc4ccc(Cl)nc4)C3=C([N+](=O)[O-])C(c3ccco3)C2(C#N)C#N)cc1` (configuration not stated), for which the mortality is given as 0%.

Take `N#CC1(C#N)C(c2ccco2)C([N+](=O)[O-])=C2N(Cc3ccc(Cl)nc3)CCN2C1c1ccccc1` (configuration not stated): the mortality was found to be 0%.

Regarding `N#Cc1ccc(C2N3CCN(Cc4ccc(Cl)nc4)C3=C([N+](=O)[O-])C(c3ccco3)C2(C#N)C#N)cc1` (configuration not stated), the mortality was 0%.

Take `Cc1ccc(F)cc1C1N2CCN(Cc3ccc(Cl)nc3)C2=C([N+](=O)[O-])C(c2ccco2)C1(C#N)C#N` (configuration not stated): the mortality is 0%.

On to `N#CC1(C#N)C(c2ccco2)C([N+](=O)[O-])=C2N(Cc3ccc(Cl)nc3)CCN2C1c1ccc(Cl)cc1Cl` (configuration not stated), for which the mortality turned out to be 85.9%.

Turning to `COc1ccc(C2N3CCN(Cc4ccc(Cl)nc4)C3=C([N+](=O)[O-])C(c3ccco3)C2(C#N)C#N)cc1` (configuration not stated), the mortality was determined as 0%.

Turning to `N#CC1(C#N)C(c2ccco2)C([N+](=O)[O-])=C2N(Cc3ccc(Cl)nc3)CCN2C1c1ccc(OC(F)(F)F)c(Cl)c1` (configuration not stated), the mortality was 0%.

For `N#CC1(C#N)C(c2ccco2)C([N+](=O)[O-])=C2N(Cc3ccc(Cl)nc3)CCN2C1c1cccc(Br)c1` (configuration not stated), the mortality came out at 75.8%.

For the molecule `N#CC1(C#N)C(c2ccco2)C([N+](=O)[O-])=C2N(Cc3ccc(Cl)nc3)CCN2C1c1ccc(OC(F)(F)F)cc1` (configuration not stated), the mortality worked out at 0%.

On to `N#CC1(C#N)C(c2ccco2)C([N+](=O)[O-])=C2N(Cc3ccc(Cl)nc3)CCN2C1c1ccc(Br)cc1Cl` (configuration not stated), for which the mortality was 0%.

Turning to `Cc1ccc(C2N3CCN(Cc4ccc(Cl)nc4)C3=C([N+](=O)[O-])C(c3ccco3)C2(C#N)C#N)cc1` (configuration not stated), the mortality is recorded as 0%.

Regarding `N#CC1(C#N)C(c2ccco2)C([N+](=O)[O-])=C2N(Cc3ccc(Cl)nc3)CCN2C1c1ccc(Cl)cc1C(F)(F)F` (configuration not stated), the mortality is on record as 100%.

Regarding `N#CC1(C#N)C(c2ccco2)C([N+](=O)[O-])=C2N(Cc3ccc(Cl)nc3)CCN2C1c1ccc([N+](=O)[O-])cc1` (configuration not stated), the mortality is on record as 0%.
